Laboratory results from US20260317344A1, “EGFR INHIBITORS FOR TREATING DISEASE” (BLOSSOMHILL THERAPEUTICS, INC., priority 2023, published 2026).

Tests used:
[1] = target: EGFR (L858R) (Homo sapiens, UniProt P00533, L858R); experiment: HotSpot radiometric kinase assay, inhibition of EGFR L858R mutant; assay type: biochemical; settings: 33P ATP, room temperature, 120 m
Experimental: (§1) Biochemical Assays for inhibition of wild-type and mutant EGFRs
(§2) Briefly, specific kinase/substrate pairs along with required cofactors were prepared in reaction buffer; 20 mM HEPES pH 7.5, 10 mM […], 1 mM EGTA, 0.02% Brij35, 0.02 mg/ml BSA, 0.1 mM Na3VO4, 2 mM DTT, 1% DMSO. Compounds were delivered into the reaction, followed ~20 minutes later by addition of a mixture of ATP (Sigma, St. Louis MO) and ^33P ATP (Perkin Elmer, Waltham MA) to a final concentration of […]. Reactions were carried out at room temperature for 120 m, followed by spotting of the reactions onto P81 ion exchange filter paper (Whatman Inc., Piscataway, NJ). Unbound phosphate was removed by extensive washing of filters in 0.75% phosphoric acid. […] IC50 values and curve fits were obtained using Prism (GraphPad Software).

[2] = target: EGFR (L858R/T790M) (Homo sapiens, UniProt P00533, L858R/T790M); experiment: HotSpot radiometric kinase assay, inhibition of EGFR L858R/T790M mutant; assay type: biochemical; settings: 33P ATP, room temperature, 120 m
Experimental: as §1, §2

[3] = target: EGFR (L858R/T790M/C797S) (Homo sapiens, UniProt P00533, C797S/L858R/T790M); experiment: HotSpot radiometric kinase assay, inhibition of EGFR L858R/T790M/C797S mutant; assay type: biochemical; settings: 33P ATP, room temperature, 120 m
Outline: (§3)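 Radiometric filter-binding format: ATP plus 33P-ATP ([…]) was added about 20 min after compound to kinase and substrate in HEPES pH 7.5 buffer with Mg2+, EGTA, Brij35, BSA, vanadate, DTT and 1% DMSO. After 120 min at room temperature, reactions were spotted on P81 paper and washed in phosphoric acid; IC50 values fitted.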

[4] = target: EGFR (D746-750) (Homo sapiens, UniProt P00533, DEL746-750); experiment: HotSpot radiometric kinase assay, inhibition of EGFR 746-750 mutant; assay type: biochemical; settings: 33P ATP, room temperature, 120 m
Outline: as §3

[5] = target: EGFR (D746-750/C797S) (Homo sapiens, UniProt P00533, C797S/DEL746-750); experiment: HotSpot radiometric kinase assay, inhibition of EGFR 746-750/C797S mutant; assay type: biochemical; settings: 33P ATP, room temperature, 120 m
Outline: as §3

[6] = target: EGFR (D770_N771insNPG) (Homo sapiens, UniProt P00533, INS770NPG); experiment: HotSpot radiometric kinase assay, inhibition of EGFR (D770_N771insNPG) mutant; assay type: biochemical; settings: 33P ATP, room temperature, 120 m
Outline: as §3

[7] = target: EGFR WT (Homo sapiens, UniProt P00533); experiment: HotSpot radiometric kinase assay, inhibition of EGFR WT; assay type: biochemical; settings: 33P ATP, room temperature, 120 m
Experimental: as §1, §2

[8] = target: T1, pEGFR, PC-9 cells (d746-750 EGFR) (Homo sapiens, UniProt P00533, DEL746-750); experiment: Cellular EGFR phosphorylation assay (LANCE Ultra TR-FRET) in PC-9 cells; assay type: cell-based; settings: 4 hours at 37° C., read-out: PC-9 pEGFR IC50
T1 construct: pEGFR (Tyr1068) TR-FRET
Outline: (§4)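 Measured in intact cells exposed to compound for 4 hours, with A431 given EGF at 40 ng/mL for the closing 10 minutes; a TR-FRET antibody pair quantified phospho-Tyr1068 EGFR in lysates (4-6 h detection at room temperature), giving IC50.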

[9] = target: T2, pEGFR, NCI-H1975 cells (L858R/T790M EGFR) (Homo sapiens, UniProt P00533, L858R/T790M); experiment: Cellular EGFR phosphorylation assay (LANCE Ultra TR-FRET) in NCI-H1975 cells; assay type: cell-based; settings: 4 hours at 37° C., read-out: H1975 pEGFR IC50
T2 construct: pEGFR (Tyr1068) TR-FRET
Outline: as §4

[10] = target: T3, pEGFR, A431 cells (wildtype EGFR) (Homo sapiens, UniProt P00533); experiment: Cellular EGFR phosphorylation assay (LANCE Ultra TR-FRET) in A431 cells; assay type: cell-based; settings: 4 hours at 37° C., 40 ng/mL EGF for the final 10 minutes, read-out: A431 pEGFR IC50
T3 construct: pEGFR (Tyr1068) TR-FRET
Outline: as §4

[11] = tested on: PC-9 cells; experiment: 5-Day CellTiter Glo (CTG) cell proliferation assay, PC-9; assay type: cell-based; settings: Homo sapiens; PC-9 cells (d746-750 EGFR), 5-day CTG proliferation, 120 hours; read-out: PC-9 IC50
Outline: (§5)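 Proliferation of EGFR-driven NSCLC cells was scored as CellTiter-Glo 2.0 luminescence after a 5-day (120 h) incubation with compounds in 9 doses. IC50 values came from the dose-response curves.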

[12] = tested on: NCI-H1975 cells; experiment: 5-Day CellTiter Glo (CTG) cell proliferation assay, NCI-H1975; assay type: cell-based; settings: Homo sapiens; NCI-H1975 cells (L858R/T790M EGFR), 5-day CTG proliferation, 120 hours; read-out: H1975 IC50
Outline: as §5

[13] = tested on: HCC827 cells; experiment: 5-Day CellTiter Glo (CTG) cell proliferation assay, HCC827; assay type: cell-based; settings: Homo sapiens; HCC827 cells (d746-750 EGFR), 5-day CTG proliferation, 120 hours; read-out: HCC827 IC50
Outline: as §5

[14] = tested on: BaF3 cells with engineered EGFR L858R/T790M/C797S; experiment: 3-Day CellTiter Glo (CTG) cell proliferation assay, BaF3 EGFR L858R/T790M/C797S; assay type: cell-based; settings: Mus musculus, 3-day CTG proliferation, 72 hours
Outline: (§6)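 Viability after 72 h compound exposure (9 concentrations, 37° C, 5% CO2) was measured as ATP luminescence with CellTiter-Glo 2.0 in EGFR-mutant-engineered BaF3 cells plated at one thousand cells per well. IC50 values obtained by curve fitting.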

[15] = tested on: BaF3 cells with engineered EGFR L858R/C797S; experiment: 3-Day CellTiter Glo (CTG) cell proliferation assay, BaF3 EGFR L858R/C797S; assay type: cell-based; settings: Mus musculus, 3-day CTG proliferation, 72 hours
Outline: as §6

[16] = tested on: BaF3 cells with engineered EGFR d746-750/T790M; experiment: 3-Day CellTiter Glo (CTG) cell proliferation assay, BaF3 EGFR d746-750/T790M; assay type: cell-based; settings: Mus musculus; BaF3 EGFR d746-750/T790M cells, 3-day CTG proliferation, 72 hours
Outline: as §6

T1 sequence (P00533 with tags, fused parts or gaps DEL746-750): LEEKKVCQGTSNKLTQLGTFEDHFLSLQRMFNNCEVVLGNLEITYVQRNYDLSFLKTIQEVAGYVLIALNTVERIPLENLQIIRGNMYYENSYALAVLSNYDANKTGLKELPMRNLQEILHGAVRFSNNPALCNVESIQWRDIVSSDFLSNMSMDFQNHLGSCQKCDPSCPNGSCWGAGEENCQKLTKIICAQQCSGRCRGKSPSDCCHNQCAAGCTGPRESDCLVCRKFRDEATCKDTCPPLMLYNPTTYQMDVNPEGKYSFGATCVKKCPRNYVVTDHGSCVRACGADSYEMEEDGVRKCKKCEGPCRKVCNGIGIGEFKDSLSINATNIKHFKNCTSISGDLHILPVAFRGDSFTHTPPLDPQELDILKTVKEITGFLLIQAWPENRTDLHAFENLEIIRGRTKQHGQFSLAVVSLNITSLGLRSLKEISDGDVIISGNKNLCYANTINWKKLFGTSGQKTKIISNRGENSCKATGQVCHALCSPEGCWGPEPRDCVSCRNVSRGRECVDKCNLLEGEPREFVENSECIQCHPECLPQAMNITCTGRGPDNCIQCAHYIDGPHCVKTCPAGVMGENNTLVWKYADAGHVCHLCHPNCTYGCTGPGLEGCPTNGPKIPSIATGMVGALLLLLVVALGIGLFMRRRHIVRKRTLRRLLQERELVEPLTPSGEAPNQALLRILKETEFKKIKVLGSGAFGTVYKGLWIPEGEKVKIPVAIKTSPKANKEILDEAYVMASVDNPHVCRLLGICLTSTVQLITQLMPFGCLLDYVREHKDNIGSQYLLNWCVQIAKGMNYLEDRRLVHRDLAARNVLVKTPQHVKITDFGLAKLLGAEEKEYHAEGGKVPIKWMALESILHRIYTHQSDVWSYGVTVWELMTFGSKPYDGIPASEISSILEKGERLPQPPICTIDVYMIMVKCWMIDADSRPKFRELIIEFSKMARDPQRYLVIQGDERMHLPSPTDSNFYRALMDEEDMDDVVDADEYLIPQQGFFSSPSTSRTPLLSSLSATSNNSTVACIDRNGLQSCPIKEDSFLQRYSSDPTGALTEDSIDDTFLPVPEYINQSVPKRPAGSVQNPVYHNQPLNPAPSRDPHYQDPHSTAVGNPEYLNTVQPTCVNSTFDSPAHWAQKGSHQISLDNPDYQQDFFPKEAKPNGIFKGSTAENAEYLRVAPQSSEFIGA
EGFR (D746-750), sequence (P00533 with tags, fused parts or gaps DEL746-750): as above
T3 sequence (P00533 25-1210): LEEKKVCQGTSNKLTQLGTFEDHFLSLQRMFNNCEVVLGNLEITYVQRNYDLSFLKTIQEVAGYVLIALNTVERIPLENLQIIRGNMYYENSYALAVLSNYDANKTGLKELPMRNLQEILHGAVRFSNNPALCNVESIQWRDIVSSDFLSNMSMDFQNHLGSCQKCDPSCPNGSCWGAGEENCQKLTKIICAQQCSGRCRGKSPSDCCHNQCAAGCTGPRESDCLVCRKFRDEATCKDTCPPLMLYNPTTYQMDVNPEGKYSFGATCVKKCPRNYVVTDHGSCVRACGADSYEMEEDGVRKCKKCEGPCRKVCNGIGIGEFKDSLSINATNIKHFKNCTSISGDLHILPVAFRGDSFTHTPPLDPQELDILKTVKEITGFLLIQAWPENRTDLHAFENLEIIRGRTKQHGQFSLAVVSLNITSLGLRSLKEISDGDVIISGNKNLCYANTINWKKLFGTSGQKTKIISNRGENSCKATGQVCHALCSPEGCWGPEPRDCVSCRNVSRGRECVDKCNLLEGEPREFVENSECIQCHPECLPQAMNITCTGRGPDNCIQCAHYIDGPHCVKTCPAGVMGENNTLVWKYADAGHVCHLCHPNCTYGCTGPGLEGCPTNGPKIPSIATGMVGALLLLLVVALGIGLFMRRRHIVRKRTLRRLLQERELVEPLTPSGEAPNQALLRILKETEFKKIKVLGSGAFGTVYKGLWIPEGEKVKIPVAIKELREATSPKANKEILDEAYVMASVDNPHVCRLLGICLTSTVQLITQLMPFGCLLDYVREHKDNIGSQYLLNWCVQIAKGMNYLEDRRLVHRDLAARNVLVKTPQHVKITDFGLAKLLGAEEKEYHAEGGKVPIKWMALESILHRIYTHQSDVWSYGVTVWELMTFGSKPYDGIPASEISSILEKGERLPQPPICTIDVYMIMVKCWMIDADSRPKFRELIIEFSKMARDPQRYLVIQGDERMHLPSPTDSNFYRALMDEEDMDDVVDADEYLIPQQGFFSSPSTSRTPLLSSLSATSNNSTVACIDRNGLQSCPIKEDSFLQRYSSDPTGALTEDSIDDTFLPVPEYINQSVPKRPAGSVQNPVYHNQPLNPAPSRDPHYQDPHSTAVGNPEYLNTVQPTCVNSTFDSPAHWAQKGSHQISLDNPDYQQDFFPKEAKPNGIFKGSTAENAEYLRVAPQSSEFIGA
EGFR WT, sequence (P00533 25-1210): as above

IC50 [1] [nM] | IC50 [2] [nM] | IC50 [3] [nM] | IC50 [4] [nM] | IC50 [5] [nM] | IC50 [6] [nM] | IC50 [7] [nM] | IC50 [8] [nM] | IC50 [9] [nM] | IC50 [10] [nM] | IC50 [11] [nM] | IC50 [12] [nM] | IC50 [13] [nM] | IC50 [14] [nM] | IC50 [15] [nM] | IC50 [16] [nM] | SMILES
 |  | 0.5 | 0.32 | 0.85 | 0.48 |  | 2.11 | 2.18 | 22.7 | 6.57 | 26.4 | 0.63 | 1.87 | 0.27 | 6.08 | CCOc1nn(CCO)c2c1/C=C/c1n[nH]c3cnc(cc13)-c1c(C)nn(C)c1OC[C@H]1CCCN1C2 [Ex. 39]
 |  | 0.57 | 0.26 | 0.62 | 0.17 |  | 1.01 | 1.92 | 9.94 | 0.84 | 1.05 | 0.29 | 0.57 | 0.05 | 1.18 | CCOc1nn(CCO)c2c1/C=C/c1n[nH]c3cnc(cc13)-c1c(C)nn(C)c1O[C@@H](C)CN(C)C2 [Ex. 44, 2-[(10S,17E)-16-ethoxy-6,8,10,12-tetramethyl-2,8,10,11,12,13-hexahydro-14H-5,3-(azenometheno)tripyrazolo[3,4-f:3′,4′-j:4″,3″-n][1,4]oxazacyclopentadecin-14-yl]ethan-1-ol]
 |  | 0.37 | 0.18 | 0.63 | 0.23 |  | 3.14 | 6.12 | 37 | 17.8 | 55.6 | 2.08 | 1.21 | 0.16 | 17.1 | Cc1nn(C)c2c1-c1cc3c(n[nH]c3cn1)/C=C/c1c(C#N)nn([C@@H](C)CO)c1CN(C)C[C@H](C)O2 [Ex. 48, (10S,17E)-14-[(2S)-1-hydroxypropan-2-yl]-6,8,10,12-tetramethyl-2,10,11,12,13,14-hexahydro-8H-5,3-(azenometheno)tripyrazolo[3,4-f:3′,4′-j:4″,3″-n∥1,4]oxazacyclopentadecine-16-carbonitrile]
 |  | 0.53 | 0.28 | 0.95 | 0.69 |  | 2.15 | 1.24 | 12.2 | 3.31 | 1.09 | 1.12 | 0.47 | 0.12 | 1.04 | CCOc1nn([C@@H](C)CO)c2c1/C=C/c1n[nH]c3c(C)nc(cc13)-c1cnn(C)c1O[C@@H](C)CN(C)C2 [Ex. 45, (2S)-2-[(10S,17E)-16-ethoxy-8,10,12,20-tetramethyl-2,8,10,11,12,13-hexahydro-14H-5,3-(azenometheno)tripyrazolo[3,4-f:3′,4′-j:4″,3″-n][1,4]oxazacyclopentadecin-14-yl]propan-1-ol]
 |  | 0.98 | 0.45 | 1.11 | 0.67 |  | 0.82 | 1.26 | 8.41 | 0.32 | 0.92 | 0.28 | 0.61 | 0.05 | 0.48 | CCOc1nn([C@@H](C)CO)c2c1/C=C/c1n[nH]c3cnc(cc13)-c1c(C)nn(C)c1O[C@@H](C)[C@H]1CCCN1C2 [Ex. 56, (2S)-2-[(8aR,9S,19E)-1-ethoxy-9,11,13-trimethyl-7,8,8a,9,11,17-hexahydro-6H-14,16-(azenometheno)tripyrazolo[3,4-f:3′,4′-j:4″,3″-n]pyrrolo[2,1-c][1,4]oxazacyclopentadecin-3(4H)-yl]propan-1-ol]

Continued, compound first:

SMILES | IC50 [1] [nM] | IC50 [2] [nM] | IC50 [3] [nM] | IC50 [4] [nM] | IC50 [5] [nM] | IC50 [6] [nM] | IC50 [7] [nM] | IC50 [8] [nM] | IC50 [9] [nM] | IC50 [10] [nM] | IC50 [11] [nM] | IC50 [12] [nM] | IC50 [13] [nM] | IC50 [14] [nM] | IC50 [15] [nM] | IC50 [16] [nM]
CCOc1nn(CCO)c2c1/C=C/c1n[nH]c3cnc(cc13)-c1cnn(C)c1O[C@@H](C)CN(C(C)C)C2 [Ex. 11, 2-[(10S,17E)-16-ethoxy-8,10-dimethyl-12-(propan-2-yl)-2,8,10,11,12,13-hexahydro-14H-5,3-(azenometheno)tripyrazolo[3,4-f:3′,4′-j:4″,3″-n][1,4]oxazacyclopentadecin-14-yl]ethan-1-ol] | 0.38 | 0.44 | 0.43 | 0.52 | 0.31 | 0.23 | 0.1 | 2.86 | 5.25 | 16.1 | 3.65 | 3.14 | 0.25 | 0.83 | 0.16 | 
CCOc1nn(CCO)c2c1/C=C/c1n[nH]c3cnc(cc13)-c1cnn(C)c1O[C@H](C)CN(CC)C2 [Ex. 6, 2-[(10R,17E)-16-ethoxy-12-ethyl-8,10-dimethyl-2,8,10,11,12,13-hexahydro-14H-5,3-(azenometheno)tripyrazolo[3,4-f:3′,4′-j:4″,3″-n][1,4]oxazacyclopentadecin-14-yl]ethan-1-ol] | 0.16 | 0.15 | 0.12 | 0.09 | 0.49 | 0.07 | 0.13 | 6.85 | 10.9 | 42.7 | 27.6 | 28 | 1.98 |  |  | 
CCOc1nn(CCO)c2c1/C=C/c1n[nH]c3cnc(cc13)-c1cnn(C)c1OC[C@H](C)N(CC)C2 [Ex. 7, 2-[(11S,17E)-16-ethoxy-12-ethyl-8,11-dimethyl-2,8,10,11,12,13-hexahydro-14H-5,3-(azenometheno)tripyrazolo[3,4-f:3′,4′-j:4″,3″-n][1,4]oxazacyclopentadecin-14-yl]ethan-1-ol] | 0.89 | 0.28 | 0.23 | 0.29 | 0.74 | 1.09 | 1.16 | 24.3 | 14.2 | 70.9 | 59.7 | 47.4 | 5.17 |  |  | 
CC(C)Oc1nn(CCO)c2c1/C=C/c1n[nH]c3cnc(cc13)-c1cnn(C)c1O[C@@H](C)CN(C)C2 [Ex. 5, 2-[(10S,17E)-8,10,12-trimethyl-16-[(propan-2-yl)oxy]-2,8,10,11,12,13-hexahydro-14H-5,3-(azenometheno)tripyrazolo[3,4-f:3′,4′-j:4″,3″-n][1,4]oxazacyclopentadecin-14-yl]ethan-1-ol] | 0.13 | 0.11 | 0.1 | 0.08 | 0.45 | 0.08 | 0.08 | 6.4 | 3.99 | 29.2 | 33.5 | 4.88 | 0.99 |  |  | 
